How the values were obtained:
A375SM (human melanoma) = experiment: Tumor cell growth inhibition (crystal violet), A375SM; format: cell-based; conditions: A375-SM, 72 hours, read-out: Concentrations for 50% growth inhibition of various tumor cells (IC50)
Method: (§1) Tumor cells described in Table 5 were suspended in RPMI1640 medium containing 10% fetal calf serum, plated into culture plates (38 mm) at the density of in 2×10^3 cells each, and cultured in 37° C., 5% CO2 incubator overnight. Subsequently, experimental agents (the compound of the invention and 5-fluorouracil) diluted to various concentrations using RPMI1640 medium containing 10% fetal calf serum were added to each plate, and further cultured for 72 hours. After the cell culture was completed, those cells were fixed with 25% glutalaldehyde for 15 minutes and washed with water three times. After that, the cells were stained with 0.05% crystal violet diluted in 20% methanol aqueous solution, washed with water three times and then dried. The crystal violet were extracted with 100 μl of 0.05M sodium dihydrogenphosphate/ethanol (1/1(v/v)), their absorbance at 540 nm were determined by an automatic spectroscope. “IC50” was defined as the concentration required for a 50% reduction in growth compared to the control absorbance.

[1] = system: TMK-1 (human gastric cancer); experiment: Tumor cell growth inhibition (crystal violet), TMK-1; format: cell-based; conditions: 72 hours, read-out: Concentrations for 50% growth inhibition of various tumor cells (IC50)
Method: as §1

[2] = system: PC-3 (human prostate cancer); experiment: Tumor cell growth inhibition (crystal violet), PC-3; format: cell-based; conditions: 72 hours, read-out: Concentrations for 50% growth inhibition of various tumor cells (IC50)
Method: as §1

[3] = system: Renca (mouse renal cancer); experiment: Tumor cell growth inhibition (crystal violet), Renca; format: cell-based; conditions: 72 hours, read-out: Concentrations for 50% growth inhibition of various tumor cells (IC50)
Method: as §1

[4] = system: OVCAR-3 (human ovarian cancer); experiment: Tumor cell growth inhibition (crystal violet), OVCAR-3; format: cell-based; conditions: 72 hours, read-out: Concentrations for 50% growth inhibition of various tumor cells (IC50)
Method: as §1

[5] = system: ZR75-1 (human breast cancer); experiment: Tumor cell growth inhibition (crystal violet), ZR75-1; format: cell-based; conditions: ZR-75-1, 72 hours, read-out: Concentrations for 50% growth inhibition of various tumor cells (IC50)
Method: as §1

[6] = system: KM12C-SM (human colon cancer); experiment: Tumor cell growth inhibition (crystal violet), KM12C-SM; format: cell-based; conditions: 72 hours, read-out: Concentrations for 50% growth inhibition of various tumor cells (IC50)
Method: as §1

[7] = system: MCF-7 (human breast cancer); experiment: Tumor cell growth inhibition (crystal violet), MCF-7; format: cell-based; conditions: MCF7, 72 hours, read-out: Concentrations for 50% growth inhibition of various tumor cells (IC50)
Method: as §1

[8] = system: SKOV-3 (human ovarian cancer); experiment: Tumor cell growth inhibition (crystal violet), SKOV-3; format: cell-based; conditions: SK-OV-3, 72 hours, read-out: Concentrations for 50% growth inhibition of various tumor cells (IC50)
Method: as §1

[9] = system: DLD-1 (human colon cancer); experiment: Tumor cell growth inhibition (crystal violet), DLD-1; format: cell-based; conditions: 72 hours, read-out: Concentrations for 50% growth inhibition of various tumor cells (IC50)
Method: as §1

[10] = system: HT-29 (human colon cancer); experiment: Tumor cell growth inhibition (crystal violet), HT-29; format: cell-based; conditions: 72 hours, read-out: Concentrations for 50% growth inhibition of various tumor cells (IC50)
Method: as §1

[11] = system: PAN-3 (human pancreatic cancer); experiment: Tumor cell growth inhibition (crystal violet), PAN-3; format: cell-based; conditions: 72 hours, read-out: Concentrations for 50% growth inhibition of various tumor cells (IC50)
Method: as §1

Solubilities in solvents = format: physicochemical
From the text: Insoluble in water and in acetone.
Soluble in a mixture of chloroform:methanol=1:1 • 8) Color of the substance: white yellowish powders • 9) Nuclear magnetic resonance spectrum

telomerase = molecular target: T1, telomerase (Homo sapiens, UniProt O14746); experiment: Telomerase-inhibiting activity using cell extracts containing telomerase; format: biochemical; conditions: read-out: concentration for inhibiting telomerase activity by 50% (IC50) in cell extracts
T1 construct: using cell extracts containing telomerase according to the conventional manner; endogenous in cells
From the text: The compound of the invention was subjected to the examination of telomerase-inhibiting activity using cell extracts containing telomerase according to the conventional manner, to provide the concentration for inhibiting telomerase activity by 50% (IC50) in cell extracts.

T1 sequence (O14746 whole entry): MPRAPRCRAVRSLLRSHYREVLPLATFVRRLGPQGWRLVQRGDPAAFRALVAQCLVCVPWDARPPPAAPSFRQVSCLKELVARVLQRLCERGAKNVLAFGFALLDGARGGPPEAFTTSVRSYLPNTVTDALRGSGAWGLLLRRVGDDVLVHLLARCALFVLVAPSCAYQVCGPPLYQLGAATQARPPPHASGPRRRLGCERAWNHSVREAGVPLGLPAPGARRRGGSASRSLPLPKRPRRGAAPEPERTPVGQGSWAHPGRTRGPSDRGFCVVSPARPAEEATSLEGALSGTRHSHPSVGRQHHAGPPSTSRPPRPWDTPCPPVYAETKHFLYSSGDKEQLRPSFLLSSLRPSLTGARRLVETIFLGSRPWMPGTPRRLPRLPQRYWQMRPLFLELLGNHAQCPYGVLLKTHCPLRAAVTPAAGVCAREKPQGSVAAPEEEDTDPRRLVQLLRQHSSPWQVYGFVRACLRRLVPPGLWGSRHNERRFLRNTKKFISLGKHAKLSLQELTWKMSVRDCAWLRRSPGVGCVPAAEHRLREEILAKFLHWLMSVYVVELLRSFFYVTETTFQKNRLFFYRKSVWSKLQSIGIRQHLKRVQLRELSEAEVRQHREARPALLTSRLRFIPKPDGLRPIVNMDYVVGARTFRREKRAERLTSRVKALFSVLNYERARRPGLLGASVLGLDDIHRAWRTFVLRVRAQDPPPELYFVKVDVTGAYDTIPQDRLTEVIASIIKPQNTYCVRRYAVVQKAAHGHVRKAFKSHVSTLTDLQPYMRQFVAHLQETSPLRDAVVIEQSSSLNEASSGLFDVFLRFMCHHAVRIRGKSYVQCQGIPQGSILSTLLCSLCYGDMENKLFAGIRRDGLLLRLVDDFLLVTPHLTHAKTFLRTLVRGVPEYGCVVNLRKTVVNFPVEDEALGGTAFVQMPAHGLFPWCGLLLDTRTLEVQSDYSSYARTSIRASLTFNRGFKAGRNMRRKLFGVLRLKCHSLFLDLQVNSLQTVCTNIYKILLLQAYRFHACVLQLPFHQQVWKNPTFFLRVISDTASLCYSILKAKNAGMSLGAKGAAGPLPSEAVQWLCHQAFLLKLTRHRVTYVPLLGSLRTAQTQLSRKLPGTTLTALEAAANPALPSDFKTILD

Compound | IC50 (A375SM (human melanoma)) | IC50 [1] | IC50 [2] | IC50 [3] | IC50 [4] | IC50 [5] | IC50 [6] | IC50 [7] | IC50 [8] | IC50 [9] | IC50 [10] | IC50 [11] | Solubility in acetone (Solubilities in solvents; acetone) | Solubility in a mixture of chloroform:methanol=1:1 (Solubilities in solvents; chloroform:methanol=1:1) | Solubility in water (Solubilities in solvents; water) | IC50 (telomerase)
O=c1[nH]cc(F)c(=O)[nH]1 [5-fluorouracil, reference compound] | 2.89 µM | 330 nM | 5.7 µM | 580 nM | 370 nM | 3.63 µM | 1320 nM | 1.12 µM | 7.84 µM | 5.5 µM | 2.1 µM | 8.82 µM |  |  |  | 
Cc1oc2nc1-c1nc(co1)-c1nc(co1)-c1nc(co1)-c1nc(co1)-c1nc(co1)C1=NC(CS1)c1nc-2c(C)o1 (stereo not shown) [Substance GM-95] | 7.04 µM | 3750 nM | 8.82 µM | 970 nM | 3410 nM | 4.04 µM | 3740 nM | 7.73 µM | 3.73 µM | 6.2 µM | 7.1 µM | 7.09 µM | Insoluble | Soluble | Insoluble | 50 nM
